The target of one data set is T1, rat PDE10A2 (Rattus norvegicus, UniProt Q9QYJ6).
T1 sequence (Q9QYJ6 1-794): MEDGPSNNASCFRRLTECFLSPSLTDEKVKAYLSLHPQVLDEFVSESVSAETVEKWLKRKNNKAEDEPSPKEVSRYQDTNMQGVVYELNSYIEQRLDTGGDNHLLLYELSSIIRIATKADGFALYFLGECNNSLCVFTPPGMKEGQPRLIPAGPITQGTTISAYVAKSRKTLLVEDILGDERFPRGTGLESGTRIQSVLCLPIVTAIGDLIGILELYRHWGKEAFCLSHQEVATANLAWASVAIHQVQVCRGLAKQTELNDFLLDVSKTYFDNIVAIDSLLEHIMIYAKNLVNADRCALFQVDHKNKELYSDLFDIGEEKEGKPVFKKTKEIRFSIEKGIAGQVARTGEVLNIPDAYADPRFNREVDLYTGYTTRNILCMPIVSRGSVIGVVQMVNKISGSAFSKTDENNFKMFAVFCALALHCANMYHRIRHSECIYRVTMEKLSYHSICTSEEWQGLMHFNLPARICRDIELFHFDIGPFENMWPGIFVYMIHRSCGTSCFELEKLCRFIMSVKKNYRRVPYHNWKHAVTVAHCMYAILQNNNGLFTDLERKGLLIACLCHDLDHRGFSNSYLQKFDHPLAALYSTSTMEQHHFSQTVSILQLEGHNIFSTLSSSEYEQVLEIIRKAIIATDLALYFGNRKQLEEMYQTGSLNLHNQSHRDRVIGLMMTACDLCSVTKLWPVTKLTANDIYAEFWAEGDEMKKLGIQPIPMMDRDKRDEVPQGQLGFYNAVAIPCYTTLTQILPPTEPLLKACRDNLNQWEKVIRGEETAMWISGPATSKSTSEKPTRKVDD
Kind of data set: rat PDE10A2-cAMP inhibition. To be noted: read-out: pIC50, rat PDE10A2-cAMP inhibition (converted). The format is biochemical. On the procedure:
The affinity of compounds Ia and Ib was determined by measuring rat PDE10A2-cAMP inhibition: […]

In another data set the target is PDE8A1 (Homo sapiens, UniProt O60658). Kind of data set: selectivity over PDE8A1. In kind it is biochemical.

For orientation: melting point means the temperature, or range, at which the solid turns liquid.

Sequence of PDE8A1 (O60658 whole entry, species assumed): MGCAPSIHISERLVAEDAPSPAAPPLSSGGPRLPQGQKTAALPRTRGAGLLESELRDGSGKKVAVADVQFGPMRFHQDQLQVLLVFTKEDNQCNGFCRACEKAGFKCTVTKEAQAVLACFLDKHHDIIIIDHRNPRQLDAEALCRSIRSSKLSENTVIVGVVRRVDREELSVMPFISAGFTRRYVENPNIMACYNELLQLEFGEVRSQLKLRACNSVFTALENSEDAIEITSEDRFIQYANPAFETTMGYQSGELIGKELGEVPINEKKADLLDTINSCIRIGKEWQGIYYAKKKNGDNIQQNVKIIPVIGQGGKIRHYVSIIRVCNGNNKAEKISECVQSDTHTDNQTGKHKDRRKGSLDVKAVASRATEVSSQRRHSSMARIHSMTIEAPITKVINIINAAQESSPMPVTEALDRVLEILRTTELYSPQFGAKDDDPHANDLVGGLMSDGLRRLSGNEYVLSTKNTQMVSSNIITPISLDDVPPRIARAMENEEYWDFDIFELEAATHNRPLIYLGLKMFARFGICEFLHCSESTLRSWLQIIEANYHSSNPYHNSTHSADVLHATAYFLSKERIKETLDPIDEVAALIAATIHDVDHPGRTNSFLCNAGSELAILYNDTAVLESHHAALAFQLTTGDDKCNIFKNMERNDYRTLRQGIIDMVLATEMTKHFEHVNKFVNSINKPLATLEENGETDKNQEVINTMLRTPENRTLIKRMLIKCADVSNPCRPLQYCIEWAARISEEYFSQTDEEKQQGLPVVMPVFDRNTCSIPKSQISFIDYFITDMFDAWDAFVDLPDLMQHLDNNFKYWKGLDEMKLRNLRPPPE

On to `FCCn1cc(-c2ccncc2)c(-c2ccc(OCc3ccc4ccccc4n3)cc2)n1` [Ia, 2-{4-[1-(2-Fluoroethyl)-4-pyridin-4-yl-1H-1-pyrazol-3-yl]-phenoxymethyl}-quinoline], for which the IC50 on rat PDE10A2 was 0.479 nM.

On to `FCCCn1cc(-c2ccncc2)c(-c2ccc(OCc3ccc4ccccc4n3)cc2)n1` [Ib, 2-{4-[1-(3-Fluoropropyl)-4-pyridin-4-yl-1H-1-pyrazol-3-yl]-phenoxymethyl}-quinoline], for which the melting point is 101.9 °C. Besides, at rat PDE10A2, the IC50 is 0.692 nM. The “selective over PDE8A1” value on PDE8A1 is reported as above 200 fold.

The values above are taken from patent US20110305637A1, “RADIOLABELLED PDE10 LIGANDS” (Janssen Pharmaceutica N.V., priority 2009, published 2011).
